This assay addresses T1, hMCH-1R (Homo sapiens, UniProt Q99705).
T1 construct: expressed in transfected cells; host or cells: CHO/Galpha16 cells
As to the kind of experiment: MCH-1 receptor binding test. Particulars: ^125I-MCH binding to membranes from CHO/Galpha16 cells stably transfected with human hMCH-1R. As to the method:
Membranes from CHO/Galpha16 cells stably transfected with human hMCH-1R are resuspended using a syringe (needle 0.6×25 mm) and diluted in test buffer (50 mM HEPES, 10 mM MgCl2, 2 mM EGTA, pH 7.00; 0.1% bovine serum albumin (protease-free), 0.021% bacitracin, 1 μg/mL aprotinin, 1 μg/mL leupeptin and 1 μM phosphoramidone) to a concentration of 5 to 15 μg/mL. […] After the incubation the reaction is filtered using a cell harvester through 0.5% PEI treated fiberglass filters (GF/B, Unifilter Packard). The membrane-bound radioactivity retained on the filter is then determined after the addition of scintillator substance (Packard Microscint 20) in a measuring device (TopCount of Packard). […] The analysis of the concentration binding curve is carried out on the assumption of one receptor binding site.

T1 sequence (Q99705 whole entry): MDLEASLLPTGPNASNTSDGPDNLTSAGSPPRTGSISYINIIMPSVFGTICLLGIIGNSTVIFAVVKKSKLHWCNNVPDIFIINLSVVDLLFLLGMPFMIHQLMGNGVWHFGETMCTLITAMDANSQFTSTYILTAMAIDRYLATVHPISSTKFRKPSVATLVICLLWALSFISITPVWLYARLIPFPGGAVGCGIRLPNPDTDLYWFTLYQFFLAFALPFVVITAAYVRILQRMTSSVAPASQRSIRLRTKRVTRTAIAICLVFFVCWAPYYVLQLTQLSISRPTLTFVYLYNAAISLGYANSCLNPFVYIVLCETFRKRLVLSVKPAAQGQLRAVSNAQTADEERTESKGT

Usually IC50 stands for the concentration at which inhibition is half-maximal. The low end stands for greater potency in that assay, the high end for weaker potency in that assay. `Cc1cc(C#Cc2ccc(-c3ccc(Cl)cc3)cn2)ccc1OCCN(C1CCCCC1)C1CCCC1` [Example 1.9, (2-{4-[5-(4-chlorophenyl)pyridin-2-ylethynyl]-2-methylphenoxy}ethyl)cyclohexylcyclopentylamine]: the IC50 was found to be 0.0062 µM.

For the molecule `CC1(O)CCN(Cc2cc3cc(C#Cc4ccc(-c5ccc(Cl)cc5)cn4)ccc3s2)CC1` [Example 22.3, 1-{5-[5-(4-chlorophenyl)pyridin-2-ylethynyl]benzo[b]thiophen-2-ylmethyl}-4-methylpiperidin-4-ol], the IC50 was 0.031 µM.

The record behind these values is patent publication US7592358B2 (Boehringer Ingelheim International GmbH, priority 2004, dated 2009).
